The target in one data set is T1, serotonin transporter (Rattus norvegicus, UniProt P31652).
T1 construct: displace ^3H-paroxetine from male rat frontal cortical membranes; from tissue; host or cells: male rat frontal cortex membranes
Put plainly: 3H-paroxetine displacement, affinity for the serotonin transporter. In kind it is binding.

The target in data set [1] is T2, cloned human 5-HT1A receptors (Homo sapiens, UniProt P08908).
T2 construct: expressed in transfected cells
T2 sequence (P08908 1-422): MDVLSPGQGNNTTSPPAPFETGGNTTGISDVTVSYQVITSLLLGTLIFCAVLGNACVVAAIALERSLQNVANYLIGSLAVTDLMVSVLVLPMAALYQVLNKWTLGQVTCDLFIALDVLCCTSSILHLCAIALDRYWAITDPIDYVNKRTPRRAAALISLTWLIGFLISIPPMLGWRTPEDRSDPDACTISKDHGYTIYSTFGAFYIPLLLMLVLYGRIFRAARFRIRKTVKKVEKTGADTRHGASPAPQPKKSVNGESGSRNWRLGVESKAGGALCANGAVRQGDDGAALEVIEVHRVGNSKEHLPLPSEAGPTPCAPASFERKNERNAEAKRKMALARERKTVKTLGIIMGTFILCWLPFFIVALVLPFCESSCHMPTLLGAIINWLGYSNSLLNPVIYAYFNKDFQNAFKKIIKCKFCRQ
Put plainly: 35S-GTPγS binding assay, antagonist activity at 5-HT1A receptors. The data set is classed as biochemical. The following applies: reversal of agonist 8-OHDPAT; for IC50: membranes with cloned human 5-HT1A, read-out: 5-HT1A Function IC50; for 5-HT1A Function (Imax), maximum inhibitory effect: value in parentheses. How it is done:
Antagonist activity at 5-HT1A receptors was established by using a ^35S-GTPγS binding assay similar to that used by Lazareno and Birdsall (Br. J. Pharmacol. 109: 1120, 1993), in which the test compound's ability to affect the binding of ^35S-GTPγS to membranes containing cloned human 5-HT1A receptors was determined. Agonists produce an increase in binding whereas antagonists produce no increase but rather reverse the effects of the standard agonist 8-OHDPAT. The test compound's maximum inhibitory effect is represented as the Imax, while its potency is defined by the IC50.
A general note: Binding of GTPγS marks nucleotide exchange on a G protein.

In a further data set the target is T3, human 5-HT1A receptors (Homo sapiens, UniProt P08908).
T3 construct: expressed in transfected cells; host or cells: CHO cells, stably transfected
T3 sequence (P08908 1-422): T2 sequence (P08908 1-422)
Put plainly: [3H] 8-OHDPAT displacement from 5-HT1A receptor (transfected CHO cells). The data set is classed as binding. As to conditions: percent displacement of [3H] 8-OHDPAT at 1 micromolar; CHO cells with human 5-HT1A. From the text:
Affinity for the serotonin 5-HT1A receptor was established by testing the claimed compound's ability to displace [^3H] 8-OHDPAT (dipropylaminotetralin) from the 5-HT1A serotonin receptor following a modification of the procedure of Hall et al., J. Neurochem. 44, 1685 (1985), which utilizes CHO cells stably transfected with human 5-HT1A receptors.

Molecules are shown by their SMILES.

T1 sequence (P31652 whole entry): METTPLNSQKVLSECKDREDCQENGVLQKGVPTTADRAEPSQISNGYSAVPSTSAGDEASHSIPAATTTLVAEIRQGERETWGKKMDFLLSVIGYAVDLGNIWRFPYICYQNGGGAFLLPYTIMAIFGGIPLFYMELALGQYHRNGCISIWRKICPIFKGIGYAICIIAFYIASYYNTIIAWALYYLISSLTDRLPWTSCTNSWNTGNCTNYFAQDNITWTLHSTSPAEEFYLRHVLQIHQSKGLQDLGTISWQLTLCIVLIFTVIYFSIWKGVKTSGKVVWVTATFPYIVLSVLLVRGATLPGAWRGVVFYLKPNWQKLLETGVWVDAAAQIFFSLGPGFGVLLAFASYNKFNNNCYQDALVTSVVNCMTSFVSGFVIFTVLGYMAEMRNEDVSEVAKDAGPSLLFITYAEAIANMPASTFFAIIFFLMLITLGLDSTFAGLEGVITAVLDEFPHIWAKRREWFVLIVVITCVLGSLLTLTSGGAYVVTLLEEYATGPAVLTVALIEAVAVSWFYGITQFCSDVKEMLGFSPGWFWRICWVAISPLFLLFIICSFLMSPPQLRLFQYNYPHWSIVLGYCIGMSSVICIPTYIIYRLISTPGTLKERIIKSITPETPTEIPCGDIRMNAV

In turn, `O=c1[nH]c2cccc3c2n1C(CN1CC=C(c2c[nH]c4ccc(Cl)cc24)CC1)CO3` (stereo not drawn) [Example 3, 4-{[4-(5-chloro-1H-indol-3-yl)-3,6-dihydropyridin-1(2H)-yl]methyl}-4,5-dihydroimidazo[1,5,4-de][1,4]benzoxazin-2(1H)-one] returned a melting point of 153 to 155 °C. The compound also returned a Ki on serotonin transporter of 15 nM. Also, in data set [1], the IC50 is 300 nM and the “5-HT1A Function (Imax), maximum inhibitory effect” value stood at 30. Moreover, the “5-HT1A Receptor Affinity % @ 1 μM” value on human 5-HT1A receptors is 81%.
For `Cc1nc2cccc3c2n1C(CN1CC=C(c2c[nH]c4ccccc24)CC1)CO3` (stereo not drawn) [Example 6, 4-{[4-(1H-indole-3-yl)-3,6-dihydropyridin-1(2H)-yl]methyl}-2-methyl-4,5-dihydroimidazo[1,5,4-de][1,4]benzoxazine] the same measures were 222 to 225 °C, 1.86 nM, 450 nM, 100 and 39%.
For the compound `O=c1[nH]c2cccc3c2n1C(CN1CC=C(c2c[nH]c4ccc(F)cc24)CC1)CO3` (stereo not drawn) [Example 2], the melting point fell in the range of 152 to 155 °C. In addition, on serotonin transporter, affinity was put at a Ki of 2.08 nM. For the same compound, in data set [1], the half-inhibitory concentration (IC50) is 300 nM and the “5-HT1A Function (Imax), maximum inhibitory effect” value turned out to be 30. The “5-HT1A Receptor Affinity % @ 1 μM” value on human 5-HT1A receptors is reported as 36%.
Take `O=c1[nH]c2cccc3c2n1C(CN1CC=C(c2c[nH]c4ccccc24)CC1)CO3` (stereo not drawn) [Example 1, 4-{[4-(1H-indol-3-yl)-3,6-dihydropyridin-1(2H)-yl]methyl}-4,5-dihydroimidazo[1,5,4-de][1,4]benzoxazin-2(1H)-one]: the melting point was in the range of 147 to 149 °C. This compound registered a Ki on serotonin transporter of 1.07 nM. Also, in data set [1], the IC50 amounted to 300 nM and the “5-HT1A Function (Imax), maximum inhibitory effect” value is recorded as 30. Besides, on human 5-HT1A receptors, the “5-HT1A Receptor Affinity % @ 1 μM” value amounted to 94%.
For `N#Cc1ccc2[nH]cc(C3=CCN(CC4COc5cccc6[nH]c(=O)n4c56)CC3)c2c1` (stereo not drawn) [Example 4, 3-{1-[(2-Oxo-1,2,4,5-tetrahydroimidazo[1,5,4-de][1,4]benzoxazin-4-yl)methyl]-1,2,3,6-tetrahydropyridin-4-yl}-1H-indole-5-carbonitrile] the same measures were above 160 °C, 3.55 nM, 750 nM, 100 and 49%.
The matching figures for `O=c1[nH]c2cccc3c2n1C(CN1CC=C(c2c[nH]c4c(F)cccc24)CC1)CO3` (stereo not drawn) [Example 5, 4-{[4-(7-Fluoro-1H-indol-3-yl)-3,6-dihydropyridin-1(2H)-yl]methyl}-4,5-dihydroimidazo[1,5,4-de][1,4]benzoxazin-2(1H)-one]: above 120 °C, 1.23 nM, 750 nM, 100 and 48%.

As usually defined, the melting point is the temperature of the solid-liquid transition. The Ki is the equilibrium dissociation constant of an inhibitor or competing ligand from its target. Low readings indicate higher affinity, high ones lower affinity. By IC50 is commonly meant the midpoint of a concentration-inhibition curve.

The values are drawn from patent US6919334B2, “Antidepressant azaheterocyclymethyl derivatives of 4,5-dihydroimidazo[1,4,5-de][1,4]benzoxazine” (Wyeth, priority 2002, dated 2005).
